Measurements from PMC6906472, “Purification and biological activity of natural variants synthesized by tridecaptin M gene cluster and in vitro drug-kinetics of this antibiotic class” (Scientific Reports, 2019).
Square brackets hold non-standard residues; d marks the D form. Peptide text beside a SMILES is read from it. * marks the point of attachment. d(aIle) = CC[C@H](C)[C@@H](N)C(=O)O; X1 = CC[C@H](C)CCCCC(=O)*; dDab = NCC[C@@H](N)C(=O)O; Dab = NCC[C@H](N)C(=O)O

How the values were obtained:
[1] = test system: K. pneumoniae AH-16 (Col-R)
Method: (§1) MICs for all the compounds were determined by broth microdilution assay, according to CLSI guidelines[16] as described previously. Haemolysis experiments were performed with fresh rabbit RBCs[11]. All the compounds were tested at a concentration of 128 µg/ml. To obtain rabbit blood, the experiments and the protocols were in accordance with the ethical standards of the Institutional Animal Ethics Committee (IAEC) of the Institute of Microbial Technology approved (Approval no. IAEC/17/11) by Committee for the Purpose of Control And Supervision of Experiments on Animals (CPCSEA, Government of India).

[2] = test system: K. pneumoniae AH-3 (Col-R)
Method: as §1

P. aeruginosa ATCC 27853 [3] = conditions: ATCC 27853
Method: as §1

K. pneumoniae GMCH 13 [4] = test system: K. pneumoniae GMCH 13
Method: as §1

[5] = test system: Serratia marcescens MTCC 97
Method: as §1

E. coli CF-23 (mcr-1) = test system: E. coli CF-23 (mcr-1)
Method: as §1

K. pneumoniae P3R (M1-R) = conditions: broth microdilution, CLSI guidelines; M1-resistant mutant of ATCC 700603
Method: as §1

A. baumannii ATCC 19606 [6] = conditions: ATCC 19606
Method: as §1

[7] = test system: Proteus mirabilis MTCC 1429
Method: as §1

K. pneumoniae GMCH 15 [8] = test system: K. pneumoniae GMCH 15
Method: as §1

[9] = test system: K. pneumoniae ATCC 700603
Method: as §1

P. aeruginosa ATCC 27853 [10] = assay: microbe, parasite or virus in culture; conditions: ATCC 27853
Method: (§2) Acinetobacter baumannii ATCC 19606, Pseudomonas aeruginosa ATCC 27853, K. pneumoniae ATCC 700603, K. pneumoniae P3R, K. pneumoniae GMCH 13 and K. pneumoniae GMCH 15 were grown in CA-MHB and adjusted to ~4 × 10^5 CFU/ml. 100 µl of fresh CA-MHB containing carbonyl cyanide m-chlorophenyl hydrazine (CCCP) or phenylalanine-arginine beta-naphthylamide (PAβN) (at a final concentration of their 1/4th of MIC or 1/8th of MIC) was added to the wells of a 96-well flat bottom plate. Tridecaptin M was diluted in a 2-fold manner. 100 µl of culture was added and the plates were incubated for 16 to 18 h at 37 °C and observed for MICs. The fold modulation in MICs of tridecaptin M was calculated by comparing the results in the presence or absence of CCCP and PAβN.

K. pneumoniae GMCH 13 [11] = assay: microbe, parasite or virus in culture; conditions: GMCH 13
Method: as §2

[12] = test system: K. pneumoniae P3R (Tri-M Resistant); assay: microbe, parasite or virus in culture
Method: as §2

A. baumannii ATCC 19606 [13] = assay: microbe, parasite or virus in culture; conditions: ATCC 19606
Method: as §2

K. pneumoniae GMCH 15 [14] = assay: microbe, parasite or virus in culture; conditions: GMCH 15
Method: as §2

CC[C@H](C)CCCCC(=O)NCC(=O)N[C@H](CCN)C(=O)NCC(=O)N[C@H](CO)C(=O)N[C@H](Cc1c[nH]c2ccccc12)C(=O)N[C@@H](CO)C(=O)N[C@@H](CCN)C(=O)N[C@H](CCN)C(=O)N[C@H](C(=O)N[C@@H](CCC(=O)O)C(=O)N[C@H](C(=O)N[C@@H](C(=O)N[C@@H](CO)C(=O)O)[C@@H](C)CC)[C@@H](C)CC)[C@@H](C)CC [M1, tridecaptin M] (X1-G[dDab]G[dS][dW]S[Dab][dDab]IEI[d(aIle)]S-OH)
Peptide MIC [1]: 4 µg/mL | Peptide MIC [2]: 4 µg/mL | Peptide MIC (P. aeruginosa ATCC 27853 [3]): >128 µg/mL | Peptide MIC (K. pneumoniae GMCH 13 [4]): 8 µg/mL | Peptide MIC [5]: 8 µg/mL | Peptide MIC (E. coli CF-23 (mcr-1)): 4 µg/mL | Peptide MIC (K. pneumoniae P3R (M1-R)): 64 µg/mL | Peptide MIC (A. baumannii ATCC 19606 [6]): 64 µg/mL | Peptide MIC [7]: >16 µg/mL | Peptide MIC (K. pneumoniae GMCH 15 [8]): 16 µg/mL | Peptide MIC [9]: 4 µg/mL | Intrinsic Activity; MIC (P. aeruginosa ATCC 27853 [10]): 256 µg/mL | MIC of peptide in the presence of CCCP (P. aeruginosa ATCC 27853 [10]): 256 µg/mL | MIC of peptide in the presence of PAβN (P. aeruginosa ATCC 27853 [10]): 256 µg/mL | FICI (K. pneumoniae GMCH 13 [11]): 0.75 | Intrinsic Activity; MIC (K. pneumoniae GMCH 13 [11]): 8 µg/mL | MIC of peptide in the presence of PAβN (K. pneumoniae GMCH 13 [11]): 8 µg/mL | MIC of peptide in the presence of CCCP ([12]; CCCP at 1/4th MIC): 64 µg/mL | MIC of peptide in the presence of CCCP ([12]; CCCP at 1/8th MIC): 64 µg/mL | MIC of peptide in the presence of PAβN ([12]; PAβN at 1/4th MIC): 64 µg/mL | MIC of peptide in the presence of PAβN ([12]; PAβN at 1/8th MIC): 64 µg/mL | Intrinsic Activity; MIC ([12]; ~4 × 10^5 CFU/ml, CA-MHB, 16 to 18 h, 37 °C): 64 µg/mL | Intrinsic Activity; MIC (A. baumannii ATCC 19606 [13]): 64 µg/mL | MIC of peptide in the presence of PAβN (A. baumannii ATCC 19606 [13]): 64 µg/mL | Intrinsic Activity; MIC (K. pneumoniae GMCH 15 [14]): 16 µg/mL | MIC of peptide in the presence of PAβN (K. pneumoniae GMCH 15 [14]): 16 µg/mL
